Laboratory results reported in ChEMBL document CHEMBL5653631, “A Potent and Selective ULK1 Inhibitor Suppresses Autophagy and Sensitizes Cancer Cells to Nutrient Stress” (iScience, 2018).

What was measured:
[1] = target: Serine/threonine-protein kinase N1 (Homo sapiens) (UniProt Q16512); assay: Inhibition of human recombinant PKN1 at 500 nM related to control ULK1
[2] = target: T1, Serine/threonine-protein kinase ICK (Homo sapiens) (UniProt Q9UPZ9); assay: Inhibition of human recombinant ICK at 500 nM related to control ULK1
T1 sequence (whole entry): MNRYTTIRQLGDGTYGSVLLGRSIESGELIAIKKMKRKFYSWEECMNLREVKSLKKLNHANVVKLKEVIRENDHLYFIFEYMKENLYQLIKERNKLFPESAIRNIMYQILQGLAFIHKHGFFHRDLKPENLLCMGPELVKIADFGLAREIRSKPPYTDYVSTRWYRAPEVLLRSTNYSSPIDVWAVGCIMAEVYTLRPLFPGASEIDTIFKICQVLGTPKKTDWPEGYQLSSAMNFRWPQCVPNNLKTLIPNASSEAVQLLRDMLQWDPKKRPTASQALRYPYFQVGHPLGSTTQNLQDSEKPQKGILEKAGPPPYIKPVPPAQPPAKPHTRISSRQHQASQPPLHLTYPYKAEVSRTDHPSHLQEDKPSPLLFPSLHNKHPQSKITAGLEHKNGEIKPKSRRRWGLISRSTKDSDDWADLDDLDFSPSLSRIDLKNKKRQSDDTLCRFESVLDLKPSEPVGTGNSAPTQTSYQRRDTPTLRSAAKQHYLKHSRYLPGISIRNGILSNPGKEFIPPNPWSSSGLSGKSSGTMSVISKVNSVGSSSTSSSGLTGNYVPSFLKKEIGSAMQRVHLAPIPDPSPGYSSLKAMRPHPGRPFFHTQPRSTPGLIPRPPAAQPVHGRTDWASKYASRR

[3] = target: Serine/threonine-protein kinase 25 (Homo sapiens) (UniProt O00506); assay: Inhibition of human recombinant YSK1 at 500 nM related to control ULK1
Sequence of Serine/threonine-protein kinase 25 (Homo sapiens) (O00506 whole entry, looked up): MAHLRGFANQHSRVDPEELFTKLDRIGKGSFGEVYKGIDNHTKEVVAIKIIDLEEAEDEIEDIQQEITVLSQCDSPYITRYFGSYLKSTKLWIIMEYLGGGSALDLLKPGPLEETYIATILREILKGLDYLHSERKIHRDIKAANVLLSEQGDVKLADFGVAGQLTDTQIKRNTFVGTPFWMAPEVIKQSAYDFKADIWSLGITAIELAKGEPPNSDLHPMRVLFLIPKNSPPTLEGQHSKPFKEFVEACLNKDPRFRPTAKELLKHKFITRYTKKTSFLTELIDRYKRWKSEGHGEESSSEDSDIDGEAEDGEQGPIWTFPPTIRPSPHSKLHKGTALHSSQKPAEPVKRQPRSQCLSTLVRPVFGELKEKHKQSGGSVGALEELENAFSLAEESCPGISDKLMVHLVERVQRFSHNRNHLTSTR

[4] = target: Receptor tyrosine-protein kinase erbB-4 (Homo sapiens) (UniProt Q15303); assay: Inhibition of human recombinant ErbB4 at 500 nM in presence of ATP by radiometric assay relative to control
Sequence of Receptor tyrosine-protein kinase erbB-4 (Homo sapiens) (Q15303 whole entry): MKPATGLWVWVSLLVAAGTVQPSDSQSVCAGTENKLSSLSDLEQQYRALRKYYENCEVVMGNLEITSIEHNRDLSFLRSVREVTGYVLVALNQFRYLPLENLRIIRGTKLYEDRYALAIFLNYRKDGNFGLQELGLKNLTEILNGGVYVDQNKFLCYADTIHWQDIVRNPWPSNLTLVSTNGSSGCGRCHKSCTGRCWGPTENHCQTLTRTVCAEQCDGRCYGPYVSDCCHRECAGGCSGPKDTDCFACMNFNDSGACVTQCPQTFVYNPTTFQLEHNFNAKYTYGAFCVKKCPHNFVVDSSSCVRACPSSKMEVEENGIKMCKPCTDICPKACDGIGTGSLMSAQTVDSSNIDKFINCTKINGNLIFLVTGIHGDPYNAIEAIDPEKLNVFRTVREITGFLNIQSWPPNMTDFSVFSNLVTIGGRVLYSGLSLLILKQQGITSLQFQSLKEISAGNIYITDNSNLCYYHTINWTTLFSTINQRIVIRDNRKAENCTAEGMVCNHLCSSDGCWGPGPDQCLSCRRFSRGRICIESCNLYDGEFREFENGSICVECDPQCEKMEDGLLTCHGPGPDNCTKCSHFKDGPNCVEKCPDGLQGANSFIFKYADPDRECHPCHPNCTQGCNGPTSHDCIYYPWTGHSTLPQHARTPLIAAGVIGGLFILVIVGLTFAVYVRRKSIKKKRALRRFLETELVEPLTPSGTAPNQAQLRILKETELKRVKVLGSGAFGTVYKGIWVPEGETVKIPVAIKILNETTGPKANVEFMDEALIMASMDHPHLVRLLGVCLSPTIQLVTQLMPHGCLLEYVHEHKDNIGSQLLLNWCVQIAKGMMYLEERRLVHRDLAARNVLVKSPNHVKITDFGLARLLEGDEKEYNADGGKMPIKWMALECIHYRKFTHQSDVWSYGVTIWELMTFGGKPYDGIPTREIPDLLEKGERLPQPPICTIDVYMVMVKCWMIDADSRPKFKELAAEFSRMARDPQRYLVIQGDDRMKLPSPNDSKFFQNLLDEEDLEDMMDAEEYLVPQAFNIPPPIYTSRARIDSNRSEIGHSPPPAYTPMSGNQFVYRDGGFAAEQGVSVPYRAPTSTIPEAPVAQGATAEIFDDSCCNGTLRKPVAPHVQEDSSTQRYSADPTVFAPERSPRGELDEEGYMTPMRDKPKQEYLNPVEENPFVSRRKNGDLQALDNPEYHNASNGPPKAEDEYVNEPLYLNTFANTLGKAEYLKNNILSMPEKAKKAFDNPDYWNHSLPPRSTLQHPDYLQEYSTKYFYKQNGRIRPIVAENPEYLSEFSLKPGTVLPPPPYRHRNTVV

[5] = target: T2, Mitogen-activated protein kinase kinase kinase 5 (Homo sapiens) (UniProt Q99683); assay: Inhibition of human recombinant MAP3K5 at 500 nM related to control ULK1
T2 sequence (whole entry): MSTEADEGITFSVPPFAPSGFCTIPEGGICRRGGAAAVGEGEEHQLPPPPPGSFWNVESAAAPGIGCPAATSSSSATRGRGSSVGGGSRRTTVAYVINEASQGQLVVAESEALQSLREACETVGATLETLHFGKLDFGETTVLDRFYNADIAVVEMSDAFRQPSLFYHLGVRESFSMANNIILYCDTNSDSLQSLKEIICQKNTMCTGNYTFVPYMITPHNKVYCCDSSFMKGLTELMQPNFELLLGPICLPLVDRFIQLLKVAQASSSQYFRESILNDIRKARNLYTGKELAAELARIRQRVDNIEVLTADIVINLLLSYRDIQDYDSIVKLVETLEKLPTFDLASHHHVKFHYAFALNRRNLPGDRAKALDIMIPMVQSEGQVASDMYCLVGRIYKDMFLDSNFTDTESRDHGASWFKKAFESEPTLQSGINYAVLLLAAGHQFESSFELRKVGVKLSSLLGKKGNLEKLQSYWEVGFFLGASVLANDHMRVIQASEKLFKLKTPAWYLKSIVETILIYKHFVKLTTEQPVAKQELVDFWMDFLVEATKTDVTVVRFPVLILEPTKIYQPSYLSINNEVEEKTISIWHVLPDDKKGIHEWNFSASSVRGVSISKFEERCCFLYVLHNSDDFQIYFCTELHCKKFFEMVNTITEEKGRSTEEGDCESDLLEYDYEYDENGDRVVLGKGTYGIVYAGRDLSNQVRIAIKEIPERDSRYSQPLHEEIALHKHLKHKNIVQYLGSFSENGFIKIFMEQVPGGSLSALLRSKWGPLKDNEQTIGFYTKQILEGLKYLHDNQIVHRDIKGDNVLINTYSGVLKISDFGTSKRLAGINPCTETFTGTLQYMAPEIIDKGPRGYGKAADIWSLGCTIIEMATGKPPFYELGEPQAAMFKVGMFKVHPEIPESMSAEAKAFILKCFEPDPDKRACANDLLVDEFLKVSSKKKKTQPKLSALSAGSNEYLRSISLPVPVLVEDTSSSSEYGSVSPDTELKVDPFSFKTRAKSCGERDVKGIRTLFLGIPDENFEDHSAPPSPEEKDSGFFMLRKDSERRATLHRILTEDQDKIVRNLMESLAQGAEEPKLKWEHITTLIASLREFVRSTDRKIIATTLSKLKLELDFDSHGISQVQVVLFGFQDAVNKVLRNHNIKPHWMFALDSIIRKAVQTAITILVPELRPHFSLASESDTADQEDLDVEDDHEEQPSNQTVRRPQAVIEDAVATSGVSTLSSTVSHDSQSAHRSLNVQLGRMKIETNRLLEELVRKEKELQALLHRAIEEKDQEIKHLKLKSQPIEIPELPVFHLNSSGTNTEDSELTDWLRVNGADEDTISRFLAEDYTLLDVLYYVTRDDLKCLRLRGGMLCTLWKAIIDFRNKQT

[6] = target: Epidermal growth factor receptor (Homo sapiens) (UniProt P00533); assay: Inhibition of human recombinant EGFR at 15 nM in presence of ATP by radiometric assay relative to control
Sequence of Epidermal growth factor receptor (Homo sapiens) (P00533 whole entry): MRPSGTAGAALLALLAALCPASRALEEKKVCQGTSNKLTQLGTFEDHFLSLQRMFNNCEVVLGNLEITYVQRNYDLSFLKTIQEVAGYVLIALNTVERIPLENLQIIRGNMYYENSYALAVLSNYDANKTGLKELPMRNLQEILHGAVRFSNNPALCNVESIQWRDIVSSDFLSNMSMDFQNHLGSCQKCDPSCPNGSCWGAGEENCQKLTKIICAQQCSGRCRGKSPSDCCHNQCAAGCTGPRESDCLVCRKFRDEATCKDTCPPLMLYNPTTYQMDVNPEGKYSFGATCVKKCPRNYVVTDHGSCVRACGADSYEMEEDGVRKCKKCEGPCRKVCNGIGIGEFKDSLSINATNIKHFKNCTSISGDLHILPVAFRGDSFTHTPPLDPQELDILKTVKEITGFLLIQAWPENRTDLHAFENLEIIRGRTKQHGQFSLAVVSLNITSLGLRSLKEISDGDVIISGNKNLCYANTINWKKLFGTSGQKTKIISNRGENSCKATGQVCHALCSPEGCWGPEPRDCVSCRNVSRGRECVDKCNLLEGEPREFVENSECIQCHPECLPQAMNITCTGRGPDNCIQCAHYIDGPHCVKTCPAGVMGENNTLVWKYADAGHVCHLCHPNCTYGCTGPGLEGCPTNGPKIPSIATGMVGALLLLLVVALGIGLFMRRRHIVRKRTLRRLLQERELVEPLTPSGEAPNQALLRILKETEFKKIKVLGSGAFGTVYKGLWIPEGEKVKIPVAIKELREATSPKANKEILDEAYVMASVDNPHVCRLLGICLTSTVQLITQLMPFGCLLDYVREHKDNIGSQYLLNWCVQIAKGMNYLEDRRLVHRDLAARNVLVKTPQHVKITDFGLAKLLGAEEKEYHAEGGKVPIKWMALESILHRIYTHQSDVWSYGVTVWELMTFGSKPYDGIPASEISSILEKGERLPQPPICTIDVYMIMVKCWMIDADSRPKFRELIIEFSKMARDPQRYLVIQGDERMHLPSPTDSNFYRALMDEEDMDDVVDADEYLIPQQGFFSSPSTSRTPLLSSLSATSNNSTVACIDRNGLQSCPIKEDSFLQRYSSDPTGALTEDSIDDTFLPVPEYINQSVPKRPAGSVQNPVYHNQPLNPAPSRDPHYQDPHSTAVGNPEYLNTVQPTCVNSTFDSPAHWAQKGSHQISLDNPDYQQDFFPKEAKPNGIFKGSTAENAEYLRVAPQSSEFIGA

[7] = target: Leukocyte tyrosine kinase receptor (Homo sapiens) (UniProt P29376); assay: Inhibition of human recombinant LTK at 15 nM in presence of ATP by radiometric assay relative to control
[8] = target: T3, Serine/threonine-protein kinase Sgk2 (Homo sapiens) (UniProt Q9HBY8); assay: Inhibition of human recombinant SGK2 at 15 nM in presence of ATP by radiometric assay relative to control
T3 sequence (whole entry): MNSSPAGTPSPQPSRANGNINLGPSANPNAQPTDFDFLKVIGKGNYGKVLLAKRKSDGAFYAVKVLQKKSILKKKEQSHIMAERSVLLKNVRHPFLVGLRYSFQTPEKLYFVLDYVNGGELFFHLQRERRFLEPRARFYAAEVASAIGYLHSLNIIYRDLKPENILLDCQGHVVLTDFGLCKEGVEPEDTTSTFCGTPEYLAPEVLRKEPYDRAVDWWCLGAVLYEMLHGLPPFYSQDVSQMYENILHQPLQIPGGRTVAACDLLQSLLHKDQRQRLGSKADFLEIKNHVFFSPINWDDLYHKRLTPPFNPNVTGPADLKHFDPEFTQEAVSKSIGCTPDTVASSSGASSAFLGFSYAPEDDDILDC

[9] = target: Homeodomain-interacting protein kinase 2 (Homo sapiens) (UniProt Q9H2X6); assay: Inhibition of human recombinant HIPK2 at 15 nM related to control ULK1
Sequence of Homeodomain-interacting protein kinase 2 (Homo sapiens) (Q9H2X6 whole entry, looked up): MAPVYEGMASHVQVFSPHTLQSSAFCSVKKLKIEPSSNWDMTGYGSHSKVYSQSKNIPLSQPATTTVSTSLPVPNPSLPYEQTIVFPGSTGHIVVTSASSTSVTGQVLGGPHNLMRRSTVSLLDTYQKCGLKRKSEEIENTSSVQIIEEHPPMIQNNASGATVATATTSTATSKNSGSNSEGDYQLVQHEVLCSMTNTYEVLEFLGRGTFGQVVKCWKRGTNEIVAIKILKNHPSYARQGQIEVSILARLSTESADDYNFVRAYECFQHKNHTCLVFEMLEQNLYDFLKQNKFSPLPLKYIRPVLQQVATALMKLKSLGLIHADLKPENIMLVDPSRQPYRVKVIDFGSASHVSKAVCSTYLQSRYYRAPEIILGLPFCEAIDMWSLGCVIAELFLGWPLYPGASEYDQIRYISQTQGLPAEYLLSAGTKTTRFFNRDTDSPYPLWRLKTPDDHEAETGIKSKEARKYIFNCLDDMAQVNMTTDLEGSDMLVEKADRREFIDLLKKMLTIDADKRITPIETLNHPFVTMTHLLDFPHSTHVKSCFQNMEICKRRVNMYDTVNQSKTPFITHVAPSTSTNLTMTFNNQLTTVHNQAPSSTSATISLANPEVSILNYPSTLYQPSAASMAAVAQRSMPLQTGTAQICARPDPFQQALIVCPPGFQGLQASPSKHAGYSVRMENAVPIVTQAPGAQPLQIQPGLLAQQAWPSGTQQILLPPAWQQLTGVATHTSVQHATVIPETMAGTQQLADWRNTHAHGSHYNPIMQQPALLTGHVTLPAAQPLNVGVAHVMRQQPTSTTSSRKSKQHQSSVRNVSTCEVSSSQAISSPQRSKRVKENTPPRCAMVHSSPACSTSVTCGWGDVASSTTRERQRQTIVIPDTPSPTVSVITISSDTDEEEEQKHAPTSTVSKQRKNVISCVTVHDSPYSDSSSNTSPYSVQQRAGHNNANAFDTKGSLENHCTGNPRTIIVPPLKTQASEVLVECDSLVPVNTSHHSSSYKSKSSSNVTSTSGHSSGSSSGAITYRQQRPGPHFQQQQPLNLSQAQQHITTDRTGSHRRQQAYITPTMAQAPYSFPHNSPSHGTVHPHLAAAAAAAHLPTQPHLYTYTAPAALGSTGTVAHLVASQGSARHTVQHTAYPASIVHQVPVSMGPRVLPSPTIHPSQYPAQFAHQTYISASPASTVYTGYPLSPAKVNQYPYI

Sequence of Serine/threonine-protein kinase N1 (Homo sapiens) (Q16512 2-942 limits assumed): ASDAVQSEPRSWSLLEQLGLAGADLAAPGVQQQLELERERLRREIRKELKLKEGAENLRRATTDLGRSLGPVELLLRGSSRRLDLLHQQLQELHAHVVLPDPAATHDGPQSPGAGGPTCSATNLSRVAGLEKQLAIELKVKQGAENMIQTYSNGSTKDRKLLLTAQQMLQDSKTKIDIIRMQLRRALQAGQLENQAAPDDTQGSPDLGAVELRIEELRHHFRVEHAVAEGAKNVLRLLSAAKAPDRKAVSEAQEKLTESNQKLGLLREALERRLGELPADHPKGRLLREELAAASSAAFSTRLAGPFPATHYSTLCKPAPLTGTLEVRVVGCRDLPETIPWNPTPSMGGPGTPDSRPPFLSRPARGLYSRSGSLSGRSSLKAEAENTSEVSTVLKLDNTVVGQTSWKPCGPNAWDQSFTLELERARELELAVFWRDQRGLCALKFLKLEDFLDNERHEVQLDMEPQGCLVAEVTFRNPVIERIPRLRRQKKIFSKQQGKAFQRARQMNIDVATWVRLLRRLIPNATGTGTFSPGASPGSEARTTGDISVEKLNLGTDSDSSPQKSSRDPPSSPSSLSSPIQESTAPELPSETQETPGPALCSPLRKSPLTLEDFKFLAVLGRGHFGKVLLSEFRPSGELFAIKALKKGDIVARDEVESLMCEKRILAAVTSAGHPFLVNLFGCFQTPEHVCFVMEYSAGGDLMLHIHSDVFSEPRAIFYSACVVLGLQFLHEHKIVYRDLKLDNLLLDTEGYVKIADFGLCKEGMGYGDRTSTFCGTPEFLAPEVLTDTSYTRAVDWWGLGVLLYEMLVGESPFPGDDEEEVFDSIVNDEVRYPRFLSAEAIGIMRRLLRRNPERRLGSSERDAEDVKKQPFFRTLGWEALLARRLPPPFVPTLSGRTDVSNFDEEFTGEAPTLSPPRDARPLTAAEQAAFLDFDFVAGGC

Row | fold change (FC) [1] | fold change (FC) [2] | fold change (FC) [3] | inhibition [4] [%] | fold change (FC) [5] | inhibition [6] [%] | inhibition [7] [%] | inhibition [8] [%] | fold change (FC) [9] | Structure (SMILES)
1 | 0 | 0.04 | 0.16 | 0 | 0 | – | – | – | – | CNC(=O)c1ccccc1Oc1nc(Nc2cc(OC)c(OC)c(OC)c2)ncc1Br
2 | – | – | – | – | – | 3 | 0 | 0 | 0.03 | CC(C)[C@H](NC(=O)c1cc(-c2cnn3cc(-c4ccc(OCCN5CCCCC5)cc4)cnc23)cs1)C(F)(F)F
